# According to patent US20230115176A1 (Ra Pharmaceuticals, Inc., priority 2019, published 2023):
# Molecular target: T1, Human C5 (Homo sapiens, UniProt P01031)
# T1 construct: purchased Complement Technology
# Assay: Red blood cell (RBC) hemolysis assay, luminescent (Example 24, Table 29)
# Type: cell-based
# Details: sheep EA cells, […] C5-depleted human serum, 0.5 nM human C5, 1 hour at 37° C., luminescence (Table 29)
# Source text: Numbers in parenthesis following the compound number indicate alternate enantiomers (as distinguished by retention time during chromatographical separation).
# T1 sequence (P01031 19-1676): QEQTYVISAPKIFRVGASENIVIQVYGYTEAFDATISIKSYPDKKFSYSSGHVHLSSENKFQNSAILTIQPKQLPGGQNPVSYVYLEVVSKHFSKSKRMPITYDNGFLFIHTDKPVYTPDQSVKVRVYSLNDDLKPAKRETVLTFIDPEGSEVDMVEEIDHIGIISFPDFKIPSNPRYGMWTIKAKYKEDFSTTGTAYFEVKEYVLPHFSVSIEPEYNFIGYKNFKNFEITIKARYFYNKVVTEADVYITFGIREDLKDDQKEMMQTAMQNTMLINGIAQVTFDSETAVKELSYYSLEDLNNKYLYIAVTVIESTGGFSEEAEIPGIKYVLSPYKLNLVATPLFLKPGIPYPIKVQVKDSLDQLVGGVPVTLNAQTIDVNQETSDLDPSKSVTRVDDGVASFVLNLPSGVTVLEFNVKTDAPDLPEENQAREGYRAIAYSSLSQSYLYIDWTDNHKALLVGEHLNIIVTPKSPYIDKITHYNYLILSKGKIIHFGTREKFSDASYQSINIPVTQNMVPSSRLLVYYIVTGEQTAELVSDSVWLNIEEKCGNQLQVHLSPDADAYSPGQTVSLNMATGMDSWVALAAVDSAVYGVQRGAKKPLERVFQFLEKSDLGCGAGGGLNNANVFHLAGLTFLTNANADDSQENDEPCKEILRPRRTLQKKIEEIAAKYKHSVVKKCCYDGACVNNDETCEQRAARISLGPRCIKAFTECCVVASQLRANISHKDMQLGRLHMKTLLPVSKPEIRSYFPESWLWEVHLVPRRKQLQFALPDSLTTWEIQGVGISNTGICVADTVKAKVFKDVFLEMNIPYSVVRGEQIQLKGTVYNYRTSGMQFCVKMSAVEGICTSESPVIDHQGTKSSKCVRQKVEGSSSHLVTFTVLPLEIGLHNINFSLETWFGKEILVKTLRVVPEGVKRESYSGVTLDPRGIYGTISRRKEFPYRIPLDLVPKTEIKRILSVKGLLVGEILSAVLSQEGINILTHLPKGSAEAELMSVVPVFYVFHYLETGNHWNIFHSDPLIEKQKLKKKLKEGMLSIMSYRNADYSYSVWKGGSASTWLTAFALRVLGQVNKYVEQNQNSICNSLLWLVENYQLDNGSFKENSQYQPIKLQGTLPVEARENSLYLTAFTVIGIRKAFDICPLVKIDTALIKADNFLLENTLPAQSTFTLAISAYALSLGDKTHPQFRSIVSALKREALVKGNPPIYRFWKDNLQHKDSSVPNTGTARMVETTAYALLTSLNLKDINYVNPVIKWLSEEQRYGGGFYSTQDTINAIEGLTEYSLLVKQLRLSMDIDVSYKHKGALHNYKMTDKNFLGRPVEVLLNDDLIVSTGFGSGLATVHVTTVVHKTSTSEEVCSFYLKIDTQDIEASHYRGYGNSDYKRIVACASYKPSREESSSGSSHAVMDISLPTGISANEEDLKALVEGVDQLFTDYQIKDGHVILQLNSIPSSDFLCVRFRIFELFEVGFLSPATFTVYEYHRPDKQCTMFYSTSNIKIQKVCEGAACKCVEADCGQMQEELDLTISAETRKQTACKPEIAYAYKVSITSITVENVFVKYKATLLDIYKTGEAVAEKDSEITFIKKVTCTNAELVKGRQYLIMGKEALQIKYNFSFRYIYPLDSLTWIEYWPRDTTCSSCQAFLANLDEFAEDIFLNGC
row,Compound,IC50 [nM]
1,CCCCCOc1cc(N2CC(C)CN(Cc3ccc(CC(=O)N(C)C)cc3OC)C2=O)ccc1OC (centres unmarked) [SC0017],28.2
2,CCCCCOc1cc(N2CC(COCC(=O)O)CN(Cc3cc(F)ccc3OC)C2=O)ccc1OC (centres unmarked) [SC0024],59.3
3,CCCCCOc1cc(N2CC(C(=O)Nc3ncco3)CN(Cc3cc(F)ccc3OC)C2=O)ccc1OC (centres unmarked) [SC0050],76.2
4,CCCCCOc1cc(N2C[C@@H](CO)CN(Cc3cc(F)ccc3OC)C2=O)ccc1OC [SC0072],14.2
5,CCCCCOc1cc(N2CC[C@H](C)N(Cc3cccc4c3ccn4CC(=O)N3CCOCC3)C2=O)ccc1OC [SC0012],28.5
6,CCCCCOc1cc(N2CC(COCC(=O)NC)CN(Cc3cc(F)ccc3OC)C2=O)ccc1OC (centres unmarked) [SC0030],94.5
7,CCCCCOc1cc(N2CC(CNC(=O)c3ccccn3)CN(Cc3cc(F)ccc3OC)C2=O)ccc1OC (centres unmarked) [SC0054],34.8
8,CCCCCOc1cc(N2CC(O)CN(Cc3cc(F)ccc3OC)C2=O)ccc1OC (centres unmarked) [SC0058],50.8
9,CCCCCOc1cc(N2CC(Cn3cc(CO)nn3)CN(Cc3cc(F)ccc3OC)C2=O)ccc1OC (centres unmarked) [SC0040],208
10,CCCCCOc1cc(N2C[C@@H](C)CN(Cc3cc(F)ccc3OC)C2=O)ccc1OC [SC0021],71.5
11,CCCCCOc1cc(N2CC3(CN(C(=O)OCC)C3)CN(Cc3cc(F)ccc3OC)C2=O)ccc1OC [SC0067],59
12,CCCCCOc1cc(N2CC[C@H](C)N(Cc3cccc4c3ccn4CC(=O)N(C)c3cccnc3)C2=O)ccc1OC [SC0011],25.2
13,CCCCCOc1cc(N2CC(C(N)=O)CN(Cc3cc(F)ccc3OC)C2=O)ccc1OC (centres unmarked) [SC0044],14.9
14,CCCCCOc1cc(N2CC3(CN(Cc4cc(F)ccc4OC)C2=O)CN(S(=O)(=O)c2ccc(C)cc2)C3)ccc1OC [SC0071],870
15,CCCCCOc1cc(N2C[C@H](C)CN(Cc3cc(F)ccc3OC)C2=O)ccc1OC [SC0020],66.8
16,CCCCCOc1cc(N2CC(Cn3cncn3)CN(Cc3cc(F)ccc3OC)C2=O)ccc1OC (centres unmarked) [SC0035],122
17,CCCCCOc1cc(N2CC(Cn3cc(-c4cnccn4)cn3)CN(Cc3cc(F)ccc3OC)C2=O)ccc1OC (centres unmarked) [SC0032],99.8
18,CCCCCOc1cc(N2CC(COCC(=O)N(C)C)CN(Cc3cc(F)ccc3OC)C2=O)ccc1OC (centres unmarked) [SC0025],59.4
19,CCCCCOc1cc(N2CC(CNC(=O)c3cnco3)CN(Cc3cc(F)ccc3OC)C2=O)ccc1OC (centres unmarked) [SC0053],24.2
20,CCCCCOc1cc(N2CC(C)CN(Cc3ccc(CC(=O)O)cc3OC)C2=O)ccc1OC (centres unmarked) [SC0019],55.9
21,CCCCCOc1cc(N2C(=O)CN(Cc3cc(F)ccc3OC)C2=O)ccc1OC [SC0063],985
22,CCCCCOc1cc(N2CC(COCC(=O)N3CCOCC3)CN(Cc3cc(F)ccc3OC)C2=O)ccc1OC (centres unmarked) [SC0029],84.5
23,CCCCCOc1cc(N2CC[C@H](C)N(Cc3cccc4[nH]ccc34)C2=O)ccc1OC [SC0010],24.7

row,Compound,IC50 [nM]
1,CCCCCOc1cc(N2CC3(CN(Cc4cc(F)ccc4OC)C2=O)CC3(F)F)ccc1OC (centres unmarked) [SC0068],77.2
2,CCCCCOc1cc(N2CC(C(=O)NC)CN(Cc3cc(F)ccc3OC)C2=O)ccc1OC (centres unmarked) [SC0046],33
3,CCCCCOc1cc(N2CC[C@@H](C)N(Cc3cccc4c3ccn4CC(=O)N(C)C)C2=O)ccc1OC [SC0014],146
4,CCCCCOc1cc(N2CC(C(=O)N3CCOCC3)CN(Cc3cc(F)ccc3OC)C2=O)ccc1OC (centres unmarked) [SC0051],111
5,CCCCCOc1cc(N2CC[C@H](C)N(Cc3cccc4c3ccn4CC(=O)N3CCCOCC3)C2=O)ccc1OC [SC0004],10.5
6,CCCCCOc1cc(N2CC(CO)CN(Cc3cc(F)ccc3OC)C2=O)ccc1OC (centres unmarked) [SC0016(1)],8.4
7,CCCCCOc1cc(N2CC3(CC3)CN(Cc3ccnc4c3ccn4CC(=O)N(C)C)C2=O)ccc1OC [SC0065],39
8,CCCCCOc1cc(N2CC(C(=O)N3CCS(=O)(=O)C3)CN(Cc3cc(F)ccc3OC)C2=O)ccc1OC (centres unmarked) [SC0045],24.3
9,CCCCCOc1cc(N2CC(Cn3ncc4ccccc43)CN(Cc3cc(F)ccc3OC)C2=O)ccc1OC (centres unmarked) [SC0043],337
10,CCCCCOc1cc(N2CC(CO)CN(Cc3ccc(Br)cc3OC)C2=O)ccc1OC (centres unmarked) [SC0027],65.1
11,CCCCCOc1cc(N2CC(COCC(=O)N(C)CCO)CN(Cc3cc(F)ccc3OC)C2=O)ccc1OC (centres unmarked) [SC0026],59.7
12,CCCCCOc1cc(N2CC[C@H](C)N(Cc3cccc4c3ccn4CC(=O)N3CCOC(COC)C3)C2=O)ccc1OC (some centres unmarked) [SC0005],11.2
13,CCCCCOc1cc(N2CC[C@H](C)N(Cc3cccc4c3ccn4CC(=O)N(C)C)C2=O)ccc1OC [SC0008],18.5
14,CCCCCOc1cc(N2CC[C@H](C)N(Cc3cccc4c3ccn4CC(=O)N3CCNC(=O)C3)C2=O)ccc1OC [SC0003],9.9
15,CCCCCOc1cc(N2CC(Cn3cc(-c4ccccn4)nn3)CN(Cc3cc(F)ccc3OC)C2=O)ccc1OC (centres unmarked) [SC0038],129
16,CCCCCOc1cc(N2CC(C(=O)N(C)C)CN(Cc3cc(F)ccc3OC)C2=O)ccc1OC (centres unmarked) [SC0048],52.3
17,CCCCCOc1cc(N2CC[C@H](C)N(Cc3cccc4c3ccn4CC(=O)NC3CC(O)C3)C2=O)ccc1OC (some centres unmarked) [SC0006],11.2
18,CCCCCOc1cc(N2CC(COCC(=O)NCCOC)CN(Cc3cc(F)ccc3OC)C2=O)ccc1OC (centres unmarked) [SC0037],124
19,CCCCCOc1cc(N2CC(CN)CN(Cc3cc(F)ccc3OC)C2=O)ccc1OC (centres unmarked) [SC0034],115
20,CCCCCOc1cc(N2CC(CNC(=O)c3ccnn3C)CN(Cc3cc(F)ccc3OC)C2=O)ccc1OC (centres unmarked) [SC0057],47.5
21,CCCCCOc1cc(N2CC(COCc3ccncn3)CN(Cc3cc(F)ccc3OC)C2=O)ccc1OC (centres unmarked) [SC0023],111
22,CCCCCOc1cc(N2CC3(COC3)CN(Cc3ccnc4c3ccn4CC(=O)N(C)C)C2=O)ccc1OC [SC0069],129
23,CCCCCOc1cc(N2CC(CO)CN(Cc3cc(F)ccc3OC)C2=O)ccc1OC (centres unmarked) [SC0016(2)],12.8

row,Compound,IC50 [nM]
1,CCCCCOc1cc(N2CC(CNC(=O)COC)CN(Cc3cc(F)ccc3OC)C2=O)ccc1OC (centres unmarked) [SC0056],42.5
2,CCCCCOc1cc(N2CC(O)(CO)CN(Cc3cc(F)ccc3OC)C2=O)ccc1OC (centres unmarked) [SC0022],140
3,C=C1CN(Cc2cc(F)ccc2OC)C(=O)N(c2ccc(OC)c(OCCCCC)c2)C1 [SC0060],22.5
4,CCCCCOc1cc(N2CC(COCC(N)=O)CN(Cc3cc(F)ccc3OC)C2=O)ccc1OC (centres unmarked) [SC0028],53.7
5,CCCCCOc1cc(N2CC3(CNC3)CN(Cc3cc(F)ccc3OC)C2=O)ccc1OC [SC0070],398
6,CCCCCOc1cc(N2CC(Cn3cc(C)cn3)CN(Cc3cc(F)ccc3OC)C2=O)ccc1OC (centres unmarked) [SC0031],96
7,CCCCCOc1cc(N2CC[C@H](C)N(Cc3cccc4c3ccn4CC(=O)N3CCCC3)C2=O)ccc1OC [SC0001],8.4
8,CCCCCOc1cc(N2CC[C@H](C)N(Cc3cccc4c3ccn4CC(=O)N3CCOC(CN(C)C)C3)C2=O)ccc1OC (some centres unmarked) [SC0007],13.6
9,CCCCCOc1cc(N2CC(Cn3cccn3)CN(Cc3cc(F)ccc3OC)C2=O)ccc1OC (centres unmarked) [SC0033],101
10,CCCCCOc1cc(N2CC[C@@H](C)N(Cc3ccnc4[nH]ccc34)C2=O)ccc1OC [SC0015],222
11,CCCCCOc1cc(N2CC(Cn3cc4ccccc4n3)CN(Cc3cc(F)ccc3OC)C2=O)ccc1OC (centres unmarked) [SC0041],251
12,CCCCCOc1cc(N2CC(C(=O)NCCOC)CN(Cc3cc(F)ccc3OC)C2=O)ccc1OC (centres unmarked) [SC0047],36.2
13,CCCCCOc1cc(N2CC(C(=O)N(C)CCO)CN(Cc3cc(F)ccc3OC)C2=O)ccc1OC (centres unmarked) [SC0049],68.1
14,CCCCCOc1cc(N2CC[C@H](C)N(Cc3cccc4c3ccn4Cc3cccnc3)C2=O)ccc1OC [SC0013],46.7
15,CCCCCOc1cc(N2CC(C)CN(Cc3cc(F)ccc3OC)C2=O)ccc1OC (centres unmarked) [SC0018],44.7
16,CCCCCOc1cc(N2CC(CNC(=O)C(F)(F)F)CN(Cc3cc(F)ccc3OC)C2=O)ccc1OC (centres unmarked) [SC0036],122
17,CCCCCOc1cc(N2CC(CNC(=O)C(=O)N(C)C)CN(Cc3cc(F)ccc3OC)C2=O)ccc1OC (centres unmarked) [SC0055],38.2
18,CCCCCOc1cc(N2CC[C@H](C)N(Cc3cccc4c3ccn4CC(=O)N3CCO[C@H](COC)C3)C2=O)ccc1OC [SC0002],8.7
19,C=C1CN(Cc2ccc(Br)cc2OC)C(=O)N(c2ccc(OC)c(OCCCCC)c2)C1 [SC0062],173
20,CCCCCOc1cc(N2CC(Cn3ccnc3)CN(Cc3cc(F)ccc3OC)C2=O)ccc1OC (centres unmarked) [SC0042],258
21,CCCCCOc1cc(N2CC(C(=O)O)CN(Cc3cc(F)ccc3OC)C2=O)ccc1OC (centres unmarked) [SC0059],57.7

# Tested on: not listed separately
# Assay: Kinetic solubility in PBS pH 7.4, HPLC-UV (Example 21, Table 27)
# Type: physicochemical
# Details: phosphate buffered saline, aqueous buffer, kinetic from dmso stock, 0.5 M PBS, shaken minimum 24 h at approximately 25° C., HPLC-UV 270 nm
# Outline: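 Supernatant measured by HPLC-UV (270 nm) against a DMSO calibration curve of 15.6–500.0 μM after filtration. Triplicate samples were made from 10 mM DMSO stock in 0.05 M phosphate buffer pH 7.4 (5% DMSO) and shaken at least 24 h at about 25 °C.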
row,Compound,solubility kinetic [µM]
1,CCCCCOc1cc(N2CC(C)CN(Cc3ccc(CC(=O)N(C)C)cc3OC)C2=O)ccc1OC (centres unmarked) [SC0017],398
2,CCCCCOc1cc(N2CC[C@H](C)N(Cc3cccc4c3ccn4CC(=O)N(C)c3cccnc3)C2=O)ccc1OC [SC0011],43
3,CCCCCOc1cc(N2CC[C@H](C)N(Cc3cccc4c3ccn4CC(=O)N(C)C)C2=O)ccc1OC [SC0008],103
4,C=C1CN(Cc2cc(F)ccc2OC)C(=O)N(c2ccc(OC)c(OCCCCC)c2)C1 [SC0060],< 10
5,CCCCCOc1cc(N2CC[C@H](C)N(Cc3cccc4c3ccn4CC(=O)N3CCCC3)C2=O)ccc1OC [SC0001],66
6,CCCCCOc1cc(N2CC[C@H](C)N(Cc3cccc4c3ccn4CC(=O)N3CCOC(CN(C)C)C3)C2=O)ccc1OC (some centres unmarked) [SC0007],445
7,CCCCCOc1cc(N2CC[C@H](C)N(Cc3cccc4c3ccn4CC(=O)N3CCO[C@H](COC)C3)C2=O)ccc1OC [SC0002],111
